Assay results: patent publication US20220396565A1 (Hoffmann-La Roche Inc., priority 2020, published 2022)
Where a name gives a salt, the structure may show the parent alone.

Each compound was assayed on Acinetobacter baumannii ATCC17961 (assay: Antimicrobial susceptibility testing: 90% growth inhibitory concentration (IC90) determination, Iso-Sensitest broth). Conditions: 90% growth inhibitory concentration, Acinetobacter baumannii ATCC17961, Iso-Sensitest broth; read-out: ATCC 17961 IC90.
Assay type: cell-based
Method in brief: (§1)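 Twofold serial dilutions (e.g. 10 to 0.02 μM final) were tested in Iso-Sensitest broth against ~5×10^(5) CFU/ml at 35±2 °C. OD600 was read every 20 min over 16 h. IC90 was derived from growth inhibition during the logarithmic phase.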
For “N-(azetidin-3- ylmethyl)-1-[2-chloro- 4-[[5-[4- (cyanomethoxy)-2,3- difluoro-phenyl]-1- methyl-imidazole-2- carbonyl]amino]benzoyl] piperidine-4- carboxamide trifluoroacetate [Example 264]”, the IC90 was 90 nM.

Same assay, conditions: Acinetobacter baumannii, ATCC17961, 90% growth inhibitory concentration, Acinetobacter baumannii ATCC17961, Iso-Sensitest broth; read-out: ATCC 17961 IC90
With COc1ccc(-c2cnc(C(=O)Nc3ccc(C(=O)N4CCN(C(=O)CN5CCC(O)C5)CC4)c(Cl)c3)n2C)c(F)c1F (stereo not drawn) [Example 294, N-[3-chloro-4-[4-[2-(3-hydroxypyrrolidin-1-yl)acetyl]piperazine-1-carbonyl]phenyl]-5-(2,3-difluoro-4-methoxy-phenyl)-1-methyl-imidazole-2-carboxamide formate] the IC90 was 40 nM. COc1ccc(-c2cnc(C(=O)Nc3ccc(C(=O)N4CCN(C(=O)CN5CC(O)C5)CC4)c(Cl)c3)n2C)c(F)c1F [Example 295, N-[3-chloro-4-[4-[2-(3-hydroxyazetidin-1-yl)acetyl]piperazine-1-carbonyl]phenyl]-5-(2,3-difluoro-4-methoxy-phenyl)-1-methyl-imidazole-2-carboxamide formate] showed an IC90 of 110 nM.

Same assay, conditions: Acinetobacter baumannii, ATCC17961, read-out: ATCC 17961 IC90
Work on COc1ccc(-c2cnc(C(=O)Nc3ccc(C(=O)N4CCN(C(=O)CCOCCNC(=O)CN(C)C)CC4)c(Cl)c3)n2C)c(F)c1F [Example 299, N-[3-Chloro-4-[4-[3-[2-[[2-(dimethylamino)acetyl]amino]ethoxy]propanoyl]piperazine-1-carbonyl]phenyl]-5-(2,3-difluoro-4-methoxy-phenyl)-1-methyl-imidazole-2-carboxamide] yielded an IC90 of 150 nM.

Each compound was assayed on Acinetobacter baumannii ATCC17978 in the same assay as above. Conditions: 90% growth inhibitory concentration, Acinetobacter baumannii ATCC17978, Iso-Sensitest broth; read-out: ATCC 17978 IC90.
Assay type: cell-based
Method in brief: as §1
Compound COc1ccc(-c2cnc(C(=O)Nc3ccc(C(=O)N4CCC(CN)CC4)c(Cl)c3)n2C)c(F)c1F [Example 16, N-[4-[4-(aminomethyl)piperidine-1-carbonyl]-3-chloro-phenyl]-5-(2,3-difluoro-4-methoxy-phenyl)-1-methyl-imidazole-2-carboxamide trifluoroacetate] has an IC90 of 300 nM. With CCc1cc(NC(=O)c2ncc(-c3ccc(OC)c(F)c3F)n2C)ccc1C(=O)N1CCC(Cc2nc(C3CCC3)no2)CC1 [Example 27, N-[4-[4-[(3-cyclobutyl-1,2,4-oxadiazol-5-yl)methyl]piperidine-1-carbonyl]-3-ethyl-phenyl]-5-(2,3-difluoro-4-methoxy-phenyl)-1-methyl-imidazole-2-carboxamide] the IC90 was 5700 nM. For Cn1c(-c2ccc(OCC#N)c(F)c2F)cnc1C(=O)Nc1ccc(C(=O)N2CCC(C(=O)N3CCOC(CN)C3)CC2)c(Cl)c1 (stereo not drawn) [Example 73, N-(4-(4-(2-(aminomethyl)morpholine-4-carbonyl)piperidine-1-carbonyl)-3-chlorophenyl)-5-(4-(cyanomethoxy)-2,3-difluorophenyl)-1-methyl-1H-imidazole-2-carboxamide 2,2,2-trifluoroacetate], the IC90 was 60 nM. Work on Cn1c(-c2ccc(OCC#N)c(F)c2F)cnc1C(=O)Nc1ccc(C(=O)N2CCC(C(=O)N3CCOCC3)CC2)c(Cl)c1 [Example 74, N-(3-chloro-4-(4-(morpholine-4-carbonyl)piperidine-1-carbonyl)phenyl)-5-(4-(cyanomethoxy)-2,3-difluorophenyl)-1-methyl-1H-imidazole-2-carboxamide] yielded an IC90 of 100 nM. Work on Cn1c(-c2ccc(OCC#N)c(F)c2F)cnc1C(=O)Nc1ccc(C(=O)N2CCC(C(=O)N3CCS(=O)(=O)CC3)CC2)c(Cl)c1 [Example 75, N-(3-chloro-4-(4-(1,1-dioxidothiomorpholine-4-carbonyl)piperidine-1-carbonyl)phenyl)-5-(4-(cyanomethoxy)-2,3-difluorophenyl)-1-methyl-1H-imidazole-2-carboxamide] yielded an IC90 of 100 nM. Work on Cn1c(-c2ccc(OCC#N)c(F)c2F)cnc1C(=O)Nc1ccc(C(=O)N2CCC(C(=O)N3CCSCC3)CC2)c(Cl)c1 [Example 76, N-(3-chloro-4-(4-(thiomorpholine-4-carbonyl)piperidine-1-carbonyl)phenyl)-5-(4-(cyanomethoxy)-2,3-difluorophenyl)-1-methyl-1H-imidazole-2-carboxamide] yielded an IC90 of 210 nM. In the case of Cc1cc(NC(=O)c2ncc(-c3ccc(OCC#N)c(F)c3F)n2C)ccc1C(=O)N1CCC(C(=O)N2CCS(=O)(=O)CC2)CC1 [Example 77, 5-(4-(cyanomethoxy)-2,3-difluorophenyl)-N-(4-(4-(1,1-dioxidothiomorpholine-4-carbonyl)piperidine-1-carbonyl)-3-methylphenyl)-1-methyl-1H-imidazole-2-carboxamide], the IC90 is reported as 170 nM. Compound Cc1cc(NC(=O)c2ncc(-c3ccc(OCC#N)c(F)c3F)n2C)ccc1C(=O)N1CCC(C(=O)N2CCOCC2)CC1 [Example 78, 5-(4-(cyanomethoxy)-2,3-difluorophenyl)-1-methyl-N-(3-methyl-4-(4-(morpholine-4-carbonyl)piperidine-1-carbonyl)phenyl)-1H-imidazole-2-carboxamide] has an IC90 of 120 nM. In the case of Cn1c(-c2ccc(OCC#N)c(F)c2F)cnc1C(=O)Nc1ccc(C(=O)N2CCC(C(=O)N3CC[C@@H](N)C3)CC2)c(Cl)c1 [Example 80, (R)-N-(4-(4-(3-aminopyrrolidine-1-carbonyl)piperidine-1-carbonyl)-3-chlorophenyl)-5-(4-(cyanomethoxy)-2,3-difluorophenyl)-1-methyl-1H-imidazole-2-carboxamide formate], the IC90 is reported as 70 nM. With Cn1c(-c2ccc(OCC#N)c(F)c2F)cnc1C(=O)Nc1ccc(C(=O)N2CCC(C(=O)N3CCN[C@@H](CO)C3)CC2)c(Cl)c1 [Example 81, (R)-N-(3-chloro-4-(4-(3-(hydroxymethyl)piperazine-1-carbonyl)piperidine-1-carbonyl)phenyl)-5-(4-(cyanomethoxy)-2,3-difluorophenyl)-1-methyl-1H-imidazole-2-carboxamide 2,2,2-trifluoroacetate] the IC90 was 70 nM. For COc1ccc(-c2cnc(C(=O)Nc3ccc(C(=O)N4CCN(C(=O)CN(C)C)CC4)c(Cl)c3)n2C)c(F)c1F [Example 104, N-[3-chloro-4-[4-[2-(dimethylamino)acetyl]piperazine-1-carbonyl]phenyl]-5-(2,3-difluoro-4-methoxy-phenyl)-1-methyl-imidazole-2-carboxamide trifluoroacetate], the IC90 was 70 nM. CNCC(=O)N1CCN(C(=O)c2ccc(NC(=O)c3ncc(-c4ccc(OC)c(F)c4F)n3C)cc2Cl)CC1 [Example 105, N-[3-chloro-4-[4-[2-(methylamino)acetyl]piperazine-1-carbonyl]phenyl]-5-(2,3-difluoro-4-methoxy-phenyl)-1-methyl-imidazole-2-carboxamide trifluoroacetate] showed an IC90 of 70 nM. COc1ccc(-c2cnc(C(=O)Nc3ccc(C(=O)N4CCN(C(=O)[C@@H]5C[C@@H](O)CN5)CC4)c(Cl)c3)n2C)c(F)c1F [Example 106, N-[3-chloro-4-[4-[(2S,4R)-4-hydroxypyrrolidine-2-carbonyl]piperazine-1-carbonyl]phenyl]-5-(2,3-difluoro-4-methoxy-phenyl)-1-methyl-imidazole-2-carboxamide trifluoroacetate] showed an IC90 of 100 nM.

Same assay, conditions: Acinetobacter baumannii, ATCC17978, read-out: ATCC 17978 IC90
With Cc1cc(NC(=O)c2ncc(-c3ccc(OCC#N)c(F)c3F)n2C)ccc1C(=O)N1CCC(C(=O)N2CC(N)C2)CC1 [Example 79, N-(4-(4-(3-aminoazetidine-1-carbonyl)piperidine-l-carbonyl)-3-methylphenyl)-5-(4-(cyanomethoxy)-2,3-difluorophenyl)-1-methyl-1H-imidazole-2-carboxamide 2,2,2-trifluoroacetate] the IC90 was 210 nM.
